Results as given in publication PMC5201249, “Agrobacterium tumefaciens estC, Encoding an Enzyme Containing Esterase Activity, Is Regulated by EstR, a Regulator in the MarR Family” (PLoS ONE, 2016).

Target: T1, EstR (Atu5211) (Agrobacterium fabrum, UniProt A9CLK2)
T1 construct: full length, non-tagged, pETBlue-2, E. coli BL21(DE3), heparin and Q-Sepharose columns
T1 sequence (A9CLK2 1-155): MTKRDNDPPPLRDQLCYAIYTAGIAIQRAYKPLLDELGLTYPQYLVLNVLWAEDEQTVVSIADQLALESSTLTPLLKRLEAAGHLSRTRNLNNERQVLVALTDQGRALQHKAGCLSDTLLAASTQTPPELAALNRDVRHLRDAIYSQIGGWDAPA
Assay: gel mobility shift: loss of EstR binding to […]-labelled 314-bp estR-estC promoter DNA
Conditions: 1 mM CHP; pH 7.0, 25 C; covalent (oxidation of sensing Cys16)

## CC(C)(OO)c1ccccc1 [CHP, cumene hydroperoxide]
  gel mobility shift: loss of EstR binding to 32P-labelled 314-bp estR-estC promot: prior CHP treatment of EstR prevented the repressor from binding to the promoter fragment
